Patent publication US10888518B2, “Orodispersible tablet containing estetrol” (ESTETRA SPRL, priority 2015, dated 2021)

Columns and labels:
[1] = Randomized, open-label, two-period, cross-over pharmacokinetic study, sublingual versus oral estetrol; type: in vivo, human; conditions: 10 mg estetrol, healthy female volunteers
Protocol: A randomized, open-label, two-period, cross-over, pharmacokinetic study is conducted to compare sublingual bioavailability of 10 mg estetrol administered in one 80 mg tablet with oral availability of estetrol contained in a 83 mg tablet containing 10 mg estetrol. These tablets are administered sublingually and orally to healthy female volunteers under fasting conditions.
Ten healthy female subjects are selected on the basis of the following criteria: age of 45-65 years (inclusive), nonsmokers or past smokers (at least 6 months before dosing), body-mass index (BMI)=18.5 to 30 kg/m^2 (inclusive at the time of the screening).
At the start of the first and the second period of the study, between 07:00 am and 07:28 am, 5 subjects receive a single dose of the sublingual formulation of estetrol by administering one estetrol tablet (tablet weight 80 mg; 10 mg estetrol) and 5 subjects receive a single oral dose of the oral estetrol formulation by administering one estetrol tablet (tablet weight 83 mg; 10 mg estetrol), ingested together with 200 ml water. […]
The estetrol concentration in the collected blood samples is determined by means of HPLC/MS/MS. The concentrations of glucuronided estetrol (D-ring) in the urine samples is also determined with the help of HPLC/MS/MS.

DMBA mammary tumour = DMBA mammary tumour model; extent and dose level similar to tamoxifen and ovariectomy; cited from earlier work
[2] = system: vagina, uterus, body weight, bone mass, bone strength, hot flushes, ovulation; conditions: rat models; dose-dependent; cited from earlier work
[3] = humans, cited from earlier work
production of SHBG = conditions: in vitro; cited from earlier work
[4] = molecular target: T1, sex hormone binding globulin (SHBG) (Homo sapiens, UniProt P04278); conditions: in vitro; cited from earlier work
T1 sequence (P04278 30-402): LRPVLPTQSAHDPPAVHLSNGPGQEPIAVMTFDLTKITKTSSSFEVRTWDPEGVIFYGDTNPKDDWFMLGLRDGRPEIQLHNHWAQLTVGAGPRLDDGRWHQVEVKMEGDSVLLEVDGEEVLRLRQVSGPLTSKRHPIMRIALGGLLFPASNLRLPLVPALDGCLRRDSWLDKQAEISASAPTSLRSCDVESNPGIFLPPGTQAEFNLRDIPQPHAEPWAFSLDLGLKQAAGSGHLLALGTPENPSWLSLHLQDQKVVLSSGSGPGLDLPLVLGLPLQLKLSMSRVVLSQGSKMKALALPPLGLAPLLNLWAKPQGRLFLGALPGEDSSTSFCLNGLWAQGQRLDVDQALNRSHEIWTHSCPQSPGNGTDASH

estrogen receptors = conditions: in vitro; cited from earlier work
[5] = system: human breast cancer cells; conditions: in vitro; cited from earlier work

Q: Which “Bioavailability of sublingually administered estetrol versus orally administered estetrol” value ([1]; 80 mg sublingual tablet vs 83 mg oral tablet, fasting) does the source give for `C[C@]12CC[C@@H]3c4ccc(O)cc4CC[C@H]3[C@@H]1[C@@H](O)[C@@H](O)[C@@H]2O` [estetrol, 1,3,5 (10)-estratrien-3,15α,16α,17β-tetrol] here?
A: comparable or even superior to orally administered estetrol

Q: And the “Impact on a liver function parameter, sublingual versus oral” value ([1]; sublingual)?
A: less impact on a liver function parameter

Q: What about the Tumour development (DMBA mammary tumour) of the same molecule?
A: prevented tumour development

Q: What about the “Estrogenic effects on vagina, uterus, body weight, bone mass, bone strength, hot flushes and ovulation” value [2] of the same molecule?
A: exhibited estrogenic effects

Q: What about the Oral bioavailability ([3]; oral) of the same molecule?
A: high and dose-proportional

Q: And the Terminal elimination half-life [3]?
A: about 28 hours

Q: And the “Stimulation of the production of SHBG” value (production of SHBG)?
A: does not stimulate the production of SHBG

Q: What about the “Binding to SHBG” value [4] of the same molecule?
A: does not bind

Q: What about the “Binding selectivity for estrogen receptors” value (estrogen receptors) of the same molecule?
A: binds highly selective to the estrogen receptors with preference for the ERα form of the receptor

Q: What about the “Effect in the presence of 17β-estradiol” value [5] of the same molecule?
A: anti-estrogenic effect
